From ChEMBL document CHEMBL1154658, “Novel macrocyclic inhibitors of hepatitis C NS3/4A protease featuring a 2-amino-1,3-thiazole as a P4 carbamate replacement” (J Med Chem, 2009) come the findings set out here.

The test system of data set [1] is Hepatitis C virus. Kind of data set: Inhibition of HCV 1b NS3/4A protease by time-resolved fluorescence assay. Also noted: species or system Hepatitis C virus subtype 1b.
Data set [2] deals with Hepatitis C virus. Kind of data set: Antiviral activity against HCV 1b infected in human Huh7 cells by bicistronic replicon RNA assay in presence of 10% fetal bovine serum. The format is functional, organism-based, Hepacivirus hominis. The note with it: genotype 1b, Huh-7. (In general: Replicon systems follow genome replication, usually without infectious particles.)
The subject of data set [3] is Hepatitis C virus. Kind of data set: Antiviral activity against HCV 1b infected in human Huh7 cells by bicistronic replicon RNA assay in presence of 50% normal human serum. Type of data set: functional, organism-based, Hepacivirus hominis. Conditions: genotype 1b, Huh-7.
Data set [4] can be described thus: AUC (0 to 4 hrs) in Sprague-Dawley rat at 5 mg/kg, po. The format is ADME, organism-based, Plasma. Also noted: time < 4 hr, dose 5 mg/kg, route oral. Conditions: Sprague-Dawley, plasma.
A short description of data set [5]: Drug level in Sprague-Dawley rat liver at 5 mg/kg, po after 4 hrs. Type of data set: ADME, organism-based. The note with it: read-out: Drug uptake. Also noted: dose 5 mg/kg, route oral.
Data set [6] can be described thus: Oral bioavailability in Sprague-Dawley rat at 5 mg/kg. Type of data set: ADME, organism-based. The note with it: in vivo.

As usually defined, the Ki is the dissociation constant of the complex between target and ligand, obtained from inhibition or displacement. Read a high Ki as a looser hold on the target. In general, EC50 refers to the midpoint of the concentration-response curve. The AUC(0-t) is exposure summed from dosing to a finite time, without extrapolation to infinity. In the data set with Hepatitis C virus [1], `C=C[C@@H]1C[C@]1(NC(=O)[C@@H]1C[C@@H]2CN1C(=O)[C@H](C1CCCCC1)Nc1nc(cs1)CCCCc1ccc3ccnc(c3c1)O2)C(=O)NS(=O)(=O)C1CC1.O=C(O)C(F)(F)F` registered a Ki of 0.0013 µM. In addition, the values for the EC50 in the data set with Hepatitis C virus [2] and with Hepatitis C virus [3] were 0.03 µM and 0.35 µM, respectively. The compound also came in with an AUC(0-t) at 4 h in data set [4] of 4.7 µM·h. Further, the concentration at 4 h in data set [5] stood at 3.4 µM.
For `C=C[C@@H]1C[C@]1(NC(=O)[C@@H]1C[C@@H]2CN1C(=O)[C@H](C(C)C)Nc1nc(cs1)C(C)(C)CCCc1ccc3ccnc(c3c1)O2)C(=O)NS(=O)(=O)C1CC1.O=C(O)C(F)(F)F`, in that order: 0.003 µM, 0.02 µM, 0.1 µM, 0.8 µM·h and 3.6 µM.
For `C=C[C@@H]1C[C@]1(NC(=O)[C@@H]1C[C@@H]2CN1C(=O)[C@H](C(C)C)NC1=NN=C(CCCCc3ccc4ccnc(c4c3)O2)O1)C(=O)NS(=O)(=O)C1CC1`, in that order: 0.0009 µM, 0.08 µM, 0.18 µM, 0.1 µM·h and 0.03 µM.
For `C=C[C@@H]1C[C@]1(NC(=O)[C@@H]1C[C@@H]2CN1C(=O)[C@H](C(C)C)Nc1nc(cs1)CCCCc1ccc3nc(-c4ccccc4)cc(c3c1)O2)C(=O)NS(=O)(=O)C1CC1.O=C(O)C(F)(F)F`, in that order: 0.0005 µM, 0.04 µM, 0.39 µM, under 0.01 µM·h and under 0.01 µM.
In the data set on Hepatitis C virus [1], `C=C[C@@H]1C[C@]1(NC(=O)[C@@H]1C[C@@H]2CN1C(=O)[C@H](C(C)C)Nc1nc(cs1)CCCCCc1ccc3ccnc(c3c1)O2)C(=O)NS(=O)(=O)C1CC1` showed a Ki of 0.0015 µM. Further, the values for the EC50 in the data set on Hepatitis C virus [2] and in the data set on Hepatitis C virus [3] were 0.12 µM and 0.83 µM, respectively.
Compound `C=C[C@@H]1C[C@]1(NC(=O)[C@@H]1C[C@@H]2CN1C(=O)[C@H](C(C)(C)C)Nc1nc(cs1)CCCCc1ccc3ccnc(c3c1)O2)C(=O)NS(=O)(=O)C1CC1.O=C(O)C(F)(F)F` displayed a Ki in the data set on Hepatitis C virus [1] of 0.0002 µM. The 50% effective concentration (EC50) is 0.02 µM in the data set on Hepatitis C virus [2] and 0.13 µM in the data set with Hepatitis C virus [3]. Further, in data set [4], the AUC(0-t) at 4 h was found to be 0.1 µM·h. The concentration at 4 h in data set [5] turned out to be 1 µM.
For `C=C[C@@H]1C[C@]1(NC(=O)[C@@H]1C[C@@H]2CN1C(=O)[C@H](C(C)(C)C)NC(=O)OCCCCCc1ccc3ccnc(c3c1)O2)C(=O)NS(=O)(=O)C1CC1` the same measures were 0.0002 µM, 0.0087 µM, 0.046 µM, 0.27 µM·h and 13.4 µM.
In general, bioavailability refers to the share of a dose that reaches the circulation, judged against a reference dose that is usually intravenous. `C=C[C@@H]1C[C@]1(NC(=O)[C@@H]1C[C@@H]2CN1C(=O)[C@H](C(C)C)Nc1nc(cs1)CCCCc1ccc3ccnc(c3c1)O2)C(=O)NS(=O)(=O)C1CC1.O=C(O)C(F)(F)F`: in the data set on Hepatitis C virus [1], the inhibition constant (Ki) worked out at 0.0017 µM. The figures for the half-maximal effective concentration (EC50) in the data set with Hepatitis C virus [2] and in the data set on Hepatitis C virus [3] were 0.06 µM and 0.92 µM, respectively. In data set [4], this compound displayed an AUC(0-t) at 4 h of 9.9 µM·h. Further, the concentration at 4 h in data set [5] is 5.5 µM. For the same compound, the bioavailability in data set [6] stood at 60%.
Compound `C=C[C@@H]1C[C@]1(NC(=O)[C@@H]1C[C@@H]2CN1C(=O)[C@H](C(C)C)Nc1nc(cs1)CC/C=C/c1ccc3ccnc(c3c1)O2)C(=O)NS(=O)(=O)C1CC1.O=C(O)C(F)(F)F` displayed a Ki with Hepatitis C virus [1] of 0.005 µM. The EC50 with Hepatitis C virus [2] stood at 0.03 µM; with Hepatitis C virus [3] it was 0.73 µM. Also, in data set [4], the AUC(0-t) at 4 h amounted to 0.9 µM·h. For the same compound, the concentration at 4 h in data set [5] was determined as 2.4 µM.
